Test results: patent US20240158339A1, “TYRAMINE CONTAINING HYDROXYCINNAMIC ACID AMIDE DERIVATIVES AND METHODS OF USE THEREOF” (Brightseed, Inc., priority 2018, published 2024)

What was measured:
[1] = Hepatic microsome stability assay, rat; assay type: in vitro ADME; conditions: for % Remaining: rat microsomes
Description: (§1) Hepatic Microsome Assay. Hepatic microsomes stability assays were performed in accordance with known methods (Peddibhotla, et al. (2013) ACS Med. Chem. Lett. 4:846-851). Briefly, 3 μL of 25 μM compound solution in acetonitrile were incubated with 123 μL of mouse, human or rat liver microsomes (Xenotech, Kansas City, KS). After preincubation at 37° C. for 10 minutes, enzyme reactions were initiated by adding 120 !at of NADPH-generating system (2 mM NADP+, 10 mM glucose-6-phosphate, 0.4 U/ml glucose-6-phosphate dehydrogenase, and 5 mM MgCl2) in the presence of 100 mM potassium phosphate buffer (pH 7.4). […] The microsomal concentrations used were 1.0 mg/mL. Compounds were incubated in microsomes for 0, 5, 15, 30 and 60 minutes. The reactions were stopped by the addition of ice cold ACN and the reaction mixtures were centrifuged at 10,000 g for 10 minutes before the supernatant was removed for analysis. A 10 μL portion of the resulting extract was injected on a Thermo HPLC system equipped with PAL CTC plate sampler (96-well plate), Dionex Ultimate 3000 binary pump (flow rate at 0. 600 mL/min), Dionex Ultimate 3000 thermostatted column compartment (temperature at 40° C.), Thermo Endura Mass Spectrometer (ESI source), using a Thermo Scientific Accucore C18 (2.6 μM, 2.1×50 mm) column. A gradient was run starting at 95% H2O (0.1% formic acid) and 5% ACN (0. 1% formic acid) during the first 0. 5 min, then under gradient condition of 5-100% ACN (0.1% formic acid) from minute 0. 5 to 3.5, finishing at 95% H2O (0.1% formic acid) and 5% ACN (0.1% formic acid) over 0.5 min, with another 1 min at 95:5 to re-equilibrate.

[2] = Hepatic microsome stability assay, mouse; assay type: in vitro ADME; conditions: for % Remaining: mouse microsomes
Description: as §1

[3] = liver microsomes, pH 7.4, 1 μM, read-out: Clearance Rate
[4] = liver microsomes, pH 7.4, 10 μM
[5] = liver microsomes, pH 7.4, 10 μM, read-out: Clearance Rate

With `O=C(/C=C/c1ccc(O)c(O)c1)NCCc1ccc(O)cc1` [N-trans-caffeoyltyramine] the half-life at 1 μM ([1]; liver microsomes, pH 7.4, 1 μM) was 2.1 min, the microsomal CLint at 1 μM [1, 3] was 674 µL/min/mg and the half-life at 10 μM [1, 4] was 22.4 min. The microsomal CLint at 10 μM [1, 5] was 30.9 µL/min/mg, the “% Remaining” value ([1]; 1 μM) was 0.6% and the “% Remaining” value ([1]; 10 μM) was 33.6%. For the same compound, the half-life at 1 μM ([2]; liver microsomes, pH 7.4, 1 μM) was 0.8 min, the microsomal CLint at 1 μM [2, 3] was 1760 µL/min/mg and the half-life at 10 μM [2, 4] was 6.9 min. The microsomal CLint at 10 μM [2, 5] was 200 µL/min/mg, the “% Remaining” value ([2]; 1 μM) was 0.4% and the “% Remaining” value ([2]; 10 μM) was 0.3%.
